US12415785B2, “Compound modulators of sting” (CTXT PTY LTD, priority 2019, dated 2025)

Biological target: human STING (HAQ) (Homo sapiens, UniProt Q86WV6, G230A/H232R/R293Q)
Experiment: Differential scanning fluorimetry (DSF), huSTING (HAQ)
Type: binding
Details: 2 μM protein, compound 100 μM; Tm with ligand minus Tm of protein alone (1% DMSO); read-out: DSF huSTING (HAQ) ΔTm (° C.)
Procedure: Biophysical experiments were performed with three different recombinant human STING protein variants designated according to allelic nomenclature of Yi et al., (2013). […] These were ligated into a modified pET43a E. coli expression vector designed to encode N-terminal His tag followed by tobacco etch virus protease (TEV) cleavage site and a STING gene sequence. The resulting protein sequences for the three allelic variants are listed below: […] Cultures were then cooled to 16° C. and protein expression induced by the addition of isopropyl β-D-1-thiogalactopyranoside to a final concentration of 0.5 mM and the cultures shaken overnight for further 16 hours. Following expression, cell cultures were centrifuged at 5000×g for 20 min and cell pellet stored frozen at −70° C. Protein purification was initiated by thawing the cell pellet in Lysis buffer (25 mM Tris-HCl pH 8.0, 300 mM NaCl, 5 mM DTT, 2 mM MgCl2, 10 mM imidazole, 0.5 mg/ml lysozyme, benzonase endonuclease [EMD Millipore], 1 mM PMSF, complete protease inhibitor tablets EDTA-free [Roche]) using a ratio of 7 ml of buffer per 1 g of cells. Cells were further lysed by 3 passes through an ice cooled Avestin C5 cell crusher and then centrifuged at 48,000×g at 4° C. […] The IMAC column was then sequentially washed with IMAC Wash buffer 1 and IMAC Wash buffer 2 (25 mM Tris-HCl pH 8.0, 300 mM NaCl, 5 mM DTT, 20 mM Imidazole) and bound His-TEV-hSTING protein eluted with IMAC Elution buffer (25 mM Tris-HCl pH 8.0, 300 mM NaCl, 5 mM DTT, 250 mM Imidazole). […] Differential scanning fluorimetry (DSF) is a rapid screening method for identifying low-molecular-weight ligands that bind and, in doing so, stabilize (or sometimes destabilize) purified proteins (Niesen 2007). DSF monitors thermal unfolding of protein in the presence of a fluorescent dye and is typically performed using a real-time PCR instrument. The temperature at which a protein unfolds is measured by an increase in the fluorescence of a dye with affinity for hydrophobic parts of the protein that are gradually being exposed during unfolding. The fluorescence of the dye is quenched in aqueous environments, but when the dye associates with hydrophobic sites on unfolded protein, its fluorescence increases. The fluorescence intensity is plotted as a function of the temperature, generating a sigmoidal curve that can be described by a two-state transition. The inflection point of the transition curve (Tm) is calculated using simple equations such as that of Boltzmann. Thermal stability of STING protein (with and without bound ligand) was measured using previously described methodology (Seabrook & Newman, 2013), with samples tested in triplicate using 96-well PCR microplate (AB Gene, ABGAB-0600/W). […] Sealed plates were placed into Bio-Rad CFX96/C1000 thermocycler and FRET scanning mode (λ^excitation of 490 nm and reads at a λ^emission of 570 nm). Melting curves were recorded from 20° C. to 100° C. in 0.5° C. increments every 30 seconds with a read at each increment. Data were analysed using “Meltdown analysis” protocol described by Rosa (2015).

Sequence of human STING (HAQ) (Q86WV6 whole entry G230A/H232R/R293Q, looked up): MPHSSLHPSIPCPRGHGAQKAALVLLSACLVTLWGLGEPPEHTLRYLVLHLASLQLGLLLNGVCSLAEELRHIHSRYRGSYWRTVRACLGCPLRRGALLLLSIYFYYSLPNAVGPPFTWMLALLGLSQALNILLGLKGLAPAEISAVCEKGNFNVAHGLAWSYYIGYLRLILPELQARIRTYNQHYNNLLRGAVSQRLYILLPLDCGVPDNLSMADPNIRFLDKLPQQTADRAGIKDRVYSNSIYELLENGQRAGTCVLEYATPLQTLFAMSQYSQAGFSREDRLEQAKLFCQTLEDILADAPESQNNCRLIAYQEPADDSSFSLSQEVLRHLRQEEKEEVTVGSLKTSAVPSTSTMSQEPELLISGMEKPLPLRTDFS

| SMILES | ΔTm at 100 µM [°C] |
| --- | --- |
| COc1c(C(N)=O)ccc2c1nc(-c1c(Cl)cccc1C(=O)O)n2CCn1c(-c2c(Cl)cccc2C(=O)O)nc2c(OC)c(C(N)=O)ccc21 (racemic) [Example 22, 2,2′-(Ethane-1,2-diylbis(5-carbamoyl-4-methoxy-1H-benzo[d]imidazole-1,2-diyl))bis(3-chlorobenzoic acid)] | 28.2 |
| COc1c(C(N)=O)ccc2c1nc(-c1c(I)cccc1C(=O)O)n2CCn1c(-c2c(I)cccc2C(=O)O)nc2c(OC)c(C(N)=O)ccc21 (single isomer, unassigned) [Example 19.1, 2,2′-(Ethane-1,2-diylbis(5-carbamoyl-4-methoxy-1H-benzo[d]imidazole-1,2-diyl))bis(3-iodobenzoic acid)] | 31.7 |
| COc1c(C(N)=O)ccc2c1nc(-c1c(Cl)cccc1-c1nn[nH]n1)n2CCn1c(-c2c(Cl)cccc2-c2nn[nH]n2)nc2c(OC)c(C(N)=O)ccc21 (single isomer, unassigned) [Example 23, 1,1′-(Ethane-1,2-diyl)bis(2-(2-chloro-6-(2H-tetrazol-5-yl)phenyl)-4-methoxy-1H-benzo[d]imidazole-5-carboxamide)] | 29.2 |
| COc1c(C(N)=O)ccc2c1nc(-c1ccc(Cl)cc1C(=O)O)n2CCn1c(-c2ccc(Cl)cc2C(=O)O)nc2c(OC)c(C(N)=O)ccc21 [Example 1, 6,6′-(Ethane-1,2-diylbis(5-carbamoyl-4-methoxy-1H-benzo[d]imidazole-1,2-diyl))bis(3-chlorobenzoic acid)] | 9.44 |
| NC(=O)c1ccc2c(c1)nc(-c1ccccc1C(=O)O)n2CCn1c(-c2ccccc2C(=O)O)nc2cc(C(N)=O)ccc21 [Example 2, 2,2′-(Ethane-1,2-diylbis(5-carbamoyl-1H-benzo[d]imidazole-1,2-diyl))dibenzoic acid] | -3.48 |
| COc1c(C(N)=O)ccc2c1nc(-c1ccccc1C(=O)O)n2CCn1c(-c2ccccc2C(=O)O)nc2c(OC)c(C(N)=O)ccc21 [Example 4, 2,2′-(Ethane-1,2-diylbis(5-carbamoyl-4-methoxy-1H-benzo[d]imidazole-1,2-diyl))dibenzoic acid] | 7.23 |
| NC(=O)c1ccc2c(c1)nc(-c1ccccc1-c1nn[nH]n1)n2CCn1c(-c2ccccc2-c2nnn[nH]2)nc2cc(C(N)=O)ccc21 [Example 5, 2-(2-(1H-Tetrazol-5-yl)phenyl)-1-(2-(2-(2-(2H-tetrazol-5-yl)phenyl)-5-carbamoyl-1H-benzo[d]imidazol-1-yl)ethyl)-1H-benzo[d]imidazole-5-carboxamide] | 6.04 |
| COc1c(C(N)=O)ccc2c1nc(-c1ccccc1-c1nn[nH]n1)n2CCn1c(-c2ccccc2-c2nn[nH]n2)nc2c(OC)c(C(N)=O)ccc21 [Example 6, 1,1′-(Ethane-1,2-diyl)bis(2-(2-(2H-tetrazol-5-yl)phenyl)-4-methoxy-1H-benzo[d]imidazole-5-carboxamide)] | 5.44 |
| COc1c(C(N)=O)ccc2c1nc(-c1ccc(Cl)cc1-c1nn[nH]n1)n2CCn1c(-c2ccc(Cl)cc2-c2nn[nH]n2)nc2c(OC)c(C(N)=O)ccc21 [Example 9, 1,1′-(Ethane-1,2-diyl)bis(2-(4-chloro-2-(2H-tetrazol-5-yl)phenyl)-4-methoxy-1H-benzo[d]imidazole-5-carboxamide)] | 11.3 |
| COc1c(C(N)=O)ccc2c1nc(-c1c(F)cccc1C(=O)O)n2CCn1c(-c2c(F)cccc2C(=O)O)nc2c(OC)c(C(N)=O)ccc21 [Example 10, 2,2′-(Ethane-1,2-diylbis(5-carbamoyl-4-methoxy-1H-benzo[d]imidazole-1,2-diyl))bis(3-fluorobenzoic acid)] | 18.4 |
| COc1c(C(N)=O)ccc2c1nc(-c1c(F)cc(Cl)cc1C(=O)O)n2CCn1c(-c2c(F)cc(Cl)cc2C(=O)O)nc2c(OC)c(C(N)=O)ccc21 [Example 11, 2,2′-(ethane-1,2-diylbis(5-carbamoyl-4-methoxy-1H-benzo[d]imidazole-1,2-diyl))bis(5-chloro-3-fluorobenzoic acid)] | 22.1 |
